Results on 26 compounds are retold here after PubChem BioAssay AID330 (DTP/NCI, 2004).

Values joined by “and” are separate entries in the source; they are usually repeats but may differ in a detail not shown here. Identical values can stand only once. Inconclusive results and toxic doses are left out.

This assay has as its system P388 leukemia ip, CD2F1 mice, survival T/C. Kind of assay: NCI In Vivo Anticancer Drug Screen. Data for tumor model P388 Leukemia (intraperitoneal) in CD2F1 (CDF1) mice. The note with it: endpoint: median survival time, higher = longer survival. The essentials:
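Mice carrying the transplanted tumor received test compound or vehicle. Survival was recorded in each group, and the value is the treated-group measurement divided by that of the vehicle-treated control group.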

[1] abbreviates: dose: 50.0 mg/kg/injection, schedule: Q01DX005 (ip), vehicle: Klucel (hydroxypropylcellulose) (HPC).
Where [2] appears, read: dose: 100.0 mg/kg/injection, schedule: Q01DX005 (ip), vehicle: Klucel (hydroxypropylcellulose) (HPC).
Where [3] appears, read: dose: 200.0 mg/kg/injection, schedule: Q01DX005 (ip), vehicle: Klucel (hydroxypropylcellulose) (HPC).
Where [4] appears, read: dose: 100.0 mg/kg/injection, schedule: Q04DX003 (ip), vehicle: saline.
[5] abbreviates: dose: 200.0 mg/kg/injection, schedule: Q04DX003 (ip), vehicle: saline.
Setting [6] is: dose: 50.0 mg/kg/injection, schedule: Q01DX009 (ip), vehicle: saline.
Setting [7] is: dose: 100.0 mg/kg/injection, schedule: Q01DX009 (ip), vehicle: saline.
[8] abbreviates: dose: 200.0 mg/kg/injection, schedule: Q01DX009 (ip), vehicle: saline.
Where [9] appears, read: dose: 50.0 mg/kg/injection, schedule: Q01DX005 (ip), vehicle: saline.
The mark [10] stands for this setting: dose: 100.0 mg/kg/injection, schedule: Q01DX005 (ip), vehicle: saline.
Where [11] appears, read: dose: 200.0 mg/kg/injection, schedule: Q01DX005 (ip), vehicle: saline.
[12] abbreviates: dose: 60.0 mg/kg/injection, schedule: Q01DX005 (ip), vehicle: saline with Tween-80.
Setting [13] is: dose: 120.0 mg/kg/injection, schedule: Q01DX005 (ip), vehicle: saline with Tween-80.
Where [14] appears, read: dose: 240.0 mg/kg/injection, schedule: Q01DX005 (ip), vehicle: saline with Tween-80.

For `O=C(CCCl)Oc1ccc(Br)cc1`, the T/C runs as follows: (dose: 100.0 mg/kg/injection, schedule: Q01DX009 (ip), vehicle: saline sonified) 111 % of control; (dose: 200.0 mg/kg/injection, schedule: Q01DX009 (ip), vehicle: saline sonified) 100 % of control; (dose: 400.0 mg/kg/injection, schedule: Q01DX009 (ip), vehicle: saline sonified) 94 % of control.
With `C=CCN1c2c(nc(N)[nH]c2=O)NCC1CNc1ccc(C(=O)NC(CCC(=O)O)C(=O)O)cc1` (stereo not given), the T/C is, setting by setting: (dose: 50.0 mg/kg/injection, schedule: Q04DX003 (ip), vehicle: alkali diluted with saline) 113 % of control; (dose: 100.0 mg/kg/injection, schedule: Q04DX003 (ip), vehicle: alkali diluted with saline) 95 % of control; (dose: 200.0 mg/kg/injection, schedule: Q04DX003 (ip), vehicle: alkali diluted with saline) 111 % of control.
With `ClCC1CSC(c2ccc3c(c2)OCO3)O1` (stereo not given), the T/C was 101 % of control and 96 % of control (dose: 50.0 mg/kg/injection, schedule: Q01DX009 (ip), vehicle: saline with Tween-80); 121 % of control and 91 % of control (dose: 100.0 mg/kg/injection, schedule: Q01DX009 (ip), vehicle: saline with Tween-80); 98 % of control (dose: 200.0 mg/kg/injection, schedule: Q01DX009 (ip), vehicle: saline with Tween-80).
Consider `CC(=O)N=c1sccn1CC(=O)c1ccccc1`, for which the T/C (dose: 25.0 mg/kg/injection, schedule: Q04DX003 (ip), vehicle: Klucel (hydroxypropylcellulose) (HPC)) is 119 % of control; the T/C (dose: 50.0 mg/kg/injection, schedule: Q04DX003 (ip), vehicle: Klucel (hydroxypropylcellulose) (HPC)) is 96 % of control; the T/C (dose: 100.0 mg/kg/injection, schedule: Q01DX001 (ip), vehicle: Klucel (hydroxypropylcellulose) (HPC)) was 100 % of control; the T/C (dose: 200.0 mg/kg/injection, schedule: Q01DX001 (ip), vehicle: Klucel (hydroxypropylcellulose) (HPC)) is 100 % of control; the T/C (dose: 400.0 mg/kg/injection, schedule: Q01DX001 (ip), vehicle: Klucel (hydroxypropylcellulose) (HPC)) is 101 % of control.
Take `CN1CCN=C1c1ccc(NC(=O)c2ccc(C(=O)Nc3ccc(C4=NCCN4C)cc3)c(N)c2)cc1`: the T/C runs as follows: (dose: 1.32 mg/kg/injection, schedule: Q01DX009 (ip), vehicle: saline) 120 % of control; (dose: 3.0 mg/kg/injection, schedule: Q01DX009 (ip), vehicle: saline) 150 % of control; (dose: 5.0 mg/kg/injection, schedule: Q04DX003 (ip), vehicle: saline with Tween-80) 95 % of control; (dose: 10.0 mg/kg/injection, schedule: Q04DX003 (ip), vehicle: saline with Tween-80) 95 % of control; (dose: 20.0 mg/kg/injection, schedule: Q04DX003 (ip), vehicle: saline with Tween-80) 90 % of control.
On to `C/C(=N\NC(N)=Nc1ccc(C)cc1)c1ccc2c(c1)Cc1ccccc1-2`, for which the T/C is, setting by setting: (dose: 25.0 mg/kg/injection, schedule: Q04DX002 (ip), vehicle: saline with Tween-80) 91 % of control; (dose: 50.0 mg/kg/injection, schedule: Q04DX002 (ip), vehicle: saline with Tween-80) 99 % of control; (dose: 100.0 mg/kg/injection, schedule: Q04DX002 (ip), vehicle: saline with Tween-80) 97 % of control.
Consider `CCOC(=O)N1C=CC(C(=O)OC)=CC=C1C(=O)OC`, for which the T/C by setting is: under setting [1], 98 % of control; under setting [2], 95 % of control; under setting [3], 94 % of control.
For `COc1ccc(CN2COc3c(cc(Cl)c4cccnc34)C2)cc1`, the T/C by setting is: (dose: 100.0 mg/kg/injection, schedule: Q04DX003 (ip), vehicle: Klucel (hydroxypropylcellulose) (HPC)) 96 % of control; (dose: 200.0 mg/kg/injection, schedule: Q04DX003 (ip), vehicle: Klucel (hydroxypropylcellulose) (HPC)) 104 % of control; (dose: 400.0 mg/kg/injection, schedule: Q04DX003 (ip), vehicle: Klucel (hydroxypropylcellulose) (HPC)) 95 % of control.
As for `CCCCC(NC(C)(C)C)c1ccccc1` (stereo not given), the T/C under setting [4] was 97 % of control; the T/C under setting [5] was 101 % of control; the T/C (dose: 400.0 mg/kg/injection, schedule: Q04DX003 (ip), vehicle: saline) was 102 % of control.
For `CC1(C)C2C=CC(OC2=O)C1(C)NC(=O)OCc1ccccc1` (stereo not given), the T/C was 96 % of control under setting [6], 98 % of control under setting [7] and 99 % of control under setting [8].
As to `CCOP(=O)(NN)OCC`, the T/C by setting is: (dose: 25.0 mg/kg/injection, schedule: Q04DX003 (ip), vehicle: saline) 114 % of control; (dose: 50.0 mg/kg/injection, schedule: Q04DX003 (ip), vehicle: saline) 97 % of control; under setting [4], 106 % of control; under setting [5], 103 % of control.
On to `N.N.O=C([O-])/C=C\C(=O)[O-].[Pt]`, for which, for the setting “dose: 4.38 mg/kg/injection, schedule: Q04DX002 (ip), vehicle: saline with Tween-80”, the T/C was 117 % of control.
For `CCOc1ccc(C(C)c2cc3c(cc2OC)OCO3)c(C)c1` (stereo not given), the T/C by setting is: under setting [1], 103 % of control; under setting [2], 106 % of control; under setting [3], 106 % of control.
Regarding `CNC(=O)OCn1cnc(Cl)c1Cl`, the T/C under setting [9] was 93 % of control, the T/C under setting [10] is 101 % of control and the T/C under setting [11] is 102 % of control.
For the compound `COc1c(OC)c(OC)c(-c2cc(=O)c3c(OC)cccc3o2)c(OC)c1OC`, the T/C is 102 % of control (dose: 25.0 mg/kg/injection, schedule: Q01DX005 (ip), vehicle: distilled water + Tween-80 + alcohol); 96 % of control (dose: 50.0 mg/kg/injection, schedule: Q01DX005 (ip), vehicle: distilled water + Tween-80 + alcohol); 95 % of control (dose: 100.0 mg/kg/injection, schedule: Q01DX005 (ip), vehicle: distilled water + Tween-80 + alcohol).
As for `CCOC(=O)c1cn(CC)c2cc(-n3cccc3)c(F)cc2c1=O`, the T/C under setting [12] is 98 % of control, the T/C under setting [13] was 97 % of control and the T/C under setting [14] was 94 % of control.
Consider `O=C(c1ccc(Cl)cc1)n1c(Cl)c(/C=N\Nc2ccc([N+](=O)[O-])cc2)c2ccccc21`, for which the T/C (dose: 100.0 mg/kg/injection, schedule: Q04DX003 (ip), vehicle: saline with Tween-80) is 94 % of control; the T/C (dose: 200.0 mg/kg/injection, schedule: Q04DX003 (ip), vehicle: saline with Tween-80) was 97 % of control; the T/C (dose: 400.0 mg/kg/injection, schedule: Q04DX003 (ip), vehicle: saline with Tween-80) is 92 % of control.
For `O=C(O)CCSSCCCS(=O)O`, the T/C reads like this: under setting [9], 109 % of control; under setting [10], 114 % of control; under setting [11], 124 % of control.
With `COC(=O)n1oc2ccc(Br)cc2c1=O`, the T/C reads like this: under setting [1], 98 % of control; under setting [2], 100 % of control; under setting [3], 106 % of control.
For `COc1cc(CC(N)C(C)=O)cc(OC)c1OC` (stereo not given), the T/C is 99 % of control under setting [6], 100 % of control under setting [7] and 100 % of control under setting [8].
In the case of `O=C(c1ccccc1)c1ccccc1NCC(O)COc1ccc(Cl)cc1C(=O)c1ccccc1` (stereo not given), the T/C under setting [12] is 91 % of control and 96 % of control; the T/C under setting [13] is 95 % of control; the T/C under setting [14] was 88 % of control and 90 % of control.
Consider `CCCCc1ccc2nc(C)cc(N=[N+]=[N-])c2c1`, for which the T/C under setting [12] is 100 % of control and the T/C under setting [13] was 98 % of control.
On to `CCOC(=O)N1CC23C(C)C(C)=C(C)C2C3(C)N1C(=O)OCC` (stereo not given), for which the T/C by setting is: under setting [1], 100 % of control; under setting [2], 100 % of control; under setting [3], 98 % of control.
As to `CC(=O)O/N=C(C)/C(C)=N/Nc1ccccc1`, the T/C is, setting by setting: (dose: 50.0 mg/kg/injection, schedule: Q01DX005 (ip), vehicle: saline with Tween-80) 93 % of control; (dose: 100.0 mg/kg/injection, schedule: Q01DX005 (ip), vehicle: saline with Tween-80) 89 % of control; (dose: 200.0 mg/kg/injection, schedule: Q01DX005 (ip), vehicle: saline with Tween-80) 87 % of control.
`Clc1ccnc2ccc3ncccc3c12`: the T/C runs as follows: (dose: 3.12 mg/kg/injection, schedule: Q04DX002 (ip), vehicle: saline with Tween-80) 113 % of control; (dose: 6.25 mg/kg/injection, schedule: Q04DX002 (ip), vehicle: saline with Tween-80) 103 % of control; (dose: 12.5 mg/kg/injection, schedule: Q04DX002 (ip), vehicle: saline with Tween-80) 100 % of control.
For the compound `COc1cc(C2C(C)=COc3cc4c(cc32)OCO4)cc(OC)c1OC` (stereo not given), the T/C runs as follows: under setting [12], 93 % of control; under setting [13], 100 % of control; under setting [14], 93 % of control.
